Results taken from patent EP4653445A1, “CDK INHIBITOR AND CRYSTAL FORM OF PHARMACEUTICALLY ACCEPTABLE SALT THEREOF, AND USE THEREOF” (CSPC Zhongqi Pharmaceutical Technology (Shijiazhuang) Co., …, priority 2023, dated 2024).

Tests used:
[1] = Stability test, samples placed open for 7 days (HPLC and XRPD); format: physicochemical; settings: for XRPD-7days / Purity (Peak area%) 7 days: open
Text: Subsequently, the samples after 7 days were respectively detected by HPLC and XRPD to determine their chemical and physical stabilities.

[2] = Grinding or crushing of the crystalline form; format: physicochemical
Text: Table 28 Results of Stability Test

[3] = Accelerated stability testing; format: physicochemical; settings: 40°C±2°C/75%±5%RH, simulated commercial packaging
[4] = Long-term stability testing; format: physicochemical; settings: 25°C±2°C/60%±5%RH, simulated commercial packaging
[5] = Stability test, samples placed open for 7 days (HPLC and XRPD); format: physicochemical; settings: HPLC
[6] = Solubility comparison in water, SGF, FaSSIF and FeSSIF (HPLC of filtrates, XRPD of filter cakes); settings: SGF, time not stated
[7] = Stress testing (high temperature, high humidity, illumination); format: physicochemical
[8] = Dynamic vapor sorption (DVS) test; format: physicochemical; settings: DVS
Method: • Instrument: TA Instruments Q5000 SA • Detection method: 20 to 50 mg of the sample was placed in a tared sample basket and automatically weighed, and DVS testing was performed according to the parameters in Table 7: Step Time: 60 min; Equilibration Time per RH%: 1 hour; Total Gas Flow Rate: 200 sccm; Gradient mode: 0%-90%-0% humidity variation, with a humidity variation amount of 10% for each gradient level between 0% and 90%, and gradient endpoint was determined by dm/dt < 0.01% maintained for 10 minutes.

[9] = High Humidity (92.5% RH), 7 days
[10] = High Humidity (92.5% RH), 14 days
[11] = High Humidity (92.5% RH), 30 days
[12] = High Temperature (60°C), 7 days
[13] = High Temperature (60°C), 14 days
[14] = High Temperature (60°C), 30 days
[15] = Illumination Testing 4500lx±500lx, 7 days
[16] = Illumination Testing 4500lx±500lx, 14 days
[17] = Illumination Testing 4500lx±500lx, 30 days

## CC(=O)c1c(C)c2cnc(Nc3ccc4c(c3)OC[C@@H]3CN(C5CCN(C)CC5)CCN43)nc2n(C2CCCC2)c1=O [crystalline form A-I of the free base of compound A]
[1]; 40°C /75%RH
  XRPD-7days: Unchanged
[1]; 40°C /75%RH, HPLC
  Purity (Peak area%) 7 days: 99.20 Peak area%
[1]; 60 °C, 92.5% RH and 40 °C/75% RH for 7 days, HPLC
  chemical stability: chemically stable
[1]; 60°C
  XRPD-7days: Unchanged
[1]; 60°C, HPLC
  Purity (Peak area%) 7 days: 99.24 Peak area%
[1]; 92.5%RH
  XRPD-7days: Unchanged
[1]; 92.5%RH, HPLC
  Purity (Peak area%) 7 days: 99.24 Peak area%
[1]; under the three conditions 60 °C, 92.5% RH and 40 °C/75% RH
  crystalline form (XRPD) after 7 days: remained unchanged
[2]
  crystalline form after grinding or crushing: remained unchanged
[3]; 6 months
  description, loss on drying, relevant substances, crystalline form and content compared with 0 month: basically the same
  Description Appearance: Yellow solid
  Measured content (%): 100.9%
  Total impurities (%): 0.77%
  crystalline form: Unchanged
  loss on drying (%): 0.08%
[3]; 0 months
  Description Appearance: Yellow solid
  Measured content (%): 99.5%
  Total impurities (%): 0.84%
  crystalline form: crystalline form A-I of free base
  loss on drying (%): 0.03%
[3]; 1 month
  Description Appearance: Yellow solid
  Measured content (%): 100.4%
  Total impurities (%): 0.80%
  loss on drying (%): 0.04%
[3]; 2 months
  Description Appearance: Yellow solid
  Measured content (%): 100.8%
  Total impurities (%): 0.82%
  loss on drying (%): 0.02%
[3]; 3 months
  Description Appearance: Yellow solid
  Measured content (%): 100.6%
  Total impurities (%): 0.85%
  crystalline form: Unchanged
  loss on drying (%): 0.02%
[4]; 18 months
  description, loss on drying, relevant substances, crystalline form and content compared with 0 month: basically the same
  Description Appearance: Yellow solid
  Measured content (%): 98.7%
  Total impurities (%): 0.71%
  crystalline form: Unchanged
  loss on drying (%): 0.03%
[4]; 0 months
  Description Appearance: Yellow solid
  Measured content (%): 99.5%
  Total impurities (%): 0.84%
  crystalline form: crystalline form A-I of free base
  loss on drying (%): 0.03%
[4]; 3 months
  Description Appearance: Yellow solid
  Measured content (%): 100.8%
  Total impurities (%): 0.89%
  crystalline form: Unchanged
  loss on drying (%): 0.02%
[4]; 6 months
  Description Appearance: Yellow solid
  Measured content (%): 100.6%
  Total impurities (%): 0.75%
  crystalline form: Unchanged
  loss on drying (%): 0.05%
[4]; 9 months
  Description Appearance: Yellow solid
  Measured content (%): 99.6%
  Total impurities (%): 0.73%
  crystalline form: Unchanged
  loss on drying (%): 0.05%
[4]; 12 months
  Description Appearance: Yellow solid
  Measured content (%): 100.8%
  Total impurities (%): 0.78%
  crystalline form: Unchanged
  loss on drying (%): 0.05%
[5]
  Purity (Peak area%) 0 day: 99.16 Peak area%
[6]
  solubility in SGF: more than 5 mg/mL
[7]; 0 Day
  Content (%): 99.5%
  Description Appearance: Yellow solid
  Total impurities (%): 0.84%
  crystalline form: crystalline form A-I of free base
  loss on drying (%): 0.03%
[7]; [9]
  Content (%): 100.2%
  Description Appearance: Yellow solid
  Hygroscopic weight gain (%): 0.03%
  Total impurities (%): 0.76%
  loss on drying (%): 0.06%
[7]; [10]
  Content (%): 99.6%
  Description Appearance: Yellow solid
  Hygroscopic weight gain (%): 0.05%
  Total impurities (%): 0.78%
  loss on drying (%): 0.07%
[7]; [11]
  Content (%): 101.0%
  Description Appearance: Yellow solid
  Hygroscopic weight gain (%): 0.09%
  Total impurities (%): 0.87%
  crystalline form: Unchanged
  loss on drying (%): 0.05%
[7]; [12]
  Content (%): 100.4%
  Description Appearance: Yellow solid
  Total impurities (%): 0.76%
  loss on drying (%): 0.05%
[7]; [13]
  Content (%): 100.6%
  Description Appearance: Yellow solid
  Total impurities (%): 0.83%
  loss on drying (%): 0.05%
[7]; [14]
  Content (%): 100.1%
  Description Appearance: Yellow solid
  Total impurities (%): 0.81%
  crystalline form: Unchanged
  loss on drying (%): 0.03%
[7]; [15]
  Content (%): 101.0%
  Description Appearance: Yellow solid
  Total impurities (%): 0.76%
  loss on drying (%): 0.07%
[7]; [16]
  Content (%): 100.2%
  Description Appearance: Yellow solid
  Total impurities (%): 0.79%
  loss on drying (%): 0.06%
[7]; [17]
  Content (%): 100.2%
  Description Appearance: Yellow solid
  Total impurities (%): 0.84%
  crystalline form: Unchanged
  loss on drying (%): 0.07%
[7]; high temperature, high humidity and illumination conditions
  stability in stress testing (conclusion): good stability
[7]; illuminance 4500 lx±500 lx, total not less than 1.2×10^6 lux·hr, near-UV not less than 200 W·hr/m^2
  stability under illumination: relatively stable
[8]; 0%-90% RH
  hygroscopic properties: non-hygroscopic
[8]; across 0%-90% RH
  weight change: approximately 0.17%
